Test: xn = mol fraction of the nth substance listed
Conditions: 101 kPa, Liquid; for mass density: Vibrating tube method; for speed of sound: fixed-path interferometer; for viscosity: Capillary tube (Ostwald / Ubbelohde) method

CCCCOCCO [2-butoxyethan-1-ol] + CCCCCCO
Conditions	mass density [kg/m3]	speed of sound [m/s]	viscosity [mPa·s]
293.15 K, x1 = 0.0535	823.637	1320	–
293.15 K, x1 = 0.1046	827.82	1319.4	–
293.15 K, x1 = 0.1546	831.917	1319.1	–
293.15 K, x1 = 0.2054	836.077	1318.8	–
293.15 K, x1 = 0.253	839.982	1318.5	–
293.15 K, x1 = 0.2999	843.819	1318.3	–
293.15 K, x1 = 0.4044	852.353	1318.3	–
293.15 K, x1 = 0.5039	860.457	1318.5	–
293.15 K, x1 = 0.5932	867.724	1318.9	–
293.15 K, x1 = 0.7003	876.414	1319.6	–
293.15 K, x1 = 0.8019	884.63	1320.7	–
293.15 K, x1 = 0.8545	888.867	1321.4	–
293.15 K, x1 = 0.8987	892.418	1322	–
293.15 K, x1 = 0.9522	896.698	1322.8	–
298.15 K, x1 = 0.0535	820.01	1303.1	4.359
298.15 K, x1 = 0.1046	824.093	1302.6	4.133
298.15 K, x1 = 0.1546	828.161	1302.2	4.004
298.15 K, x1 = 0.2054	832.312	1301.8	3.821
298.15 K, x1 = 0.253	836.221	1301.6	3.691
298.15 K, x1 = 0.2999	840.066	1301.4	3.616
298.15 K, x1 = 0.4044	848.606	1301.3	3.464
298.15 K, x1 = 0.5039	856.686	1301.5	3.305
298.15 K, x1 = 0.5932	863.892	1301.8	3.139
298.15 K, x1 = 0.7003	872.492	1302.6	3.046
298.15 K, x1 = 0.8019	880.623	1303.6	2.996
298.15 K, x1 = 0.8545	884.811	1304.3	2.908
298.15 K, x1 = 0.8987	888.334	1305	2.897
298.15 K, x1 = 0.9522	892.569	1305.7	2.871
303.15 K, x1 = 0.0535	816.368	1286.3	3.706
303.15 K, x1 = 0.1046	820.503	1285.8	3.56
303.15 K, x1 = 0.1546	824.557	1285.5	3.421
303.15 K, x1 = 0.2054	828.676	1285.2	3.3
303.15 K, x1 = 0.253	832.536	1284.9	3.19
303.15 K, x1 = 0.2999	836.324	1284.8	3.1
303.15 K, x1 = 0.4044	844.739	1284.7	2.916
303.15 K, x1 = 0.5039	852.713	1284.8	2.781
303.15 K, x1 = 0.5932	859.852	1285.2	2.694
303.15 K, x1 = 0.7003	868.399	1285.9	2.631
303.15 K, x1 = 0.8019	876.485	1286.8	2.583
303.15 K, x1 = 0.8545	880.662	1287.4	2.573
303.15 K, x1 = 0.8987	884.162	1288	2.595
303.15 K, x1 = 0.9522	888.376	1288.7	2.613
308.15 K, x1 = 0.0535	812.694	1269.6	3.243
308.15 K, x1 = 0.1046	816.794	1269.2	3.12
308.15 K, x1 = 0.1546	820.816	1268.8	3.006
308.15 K, x1 = 0.2054	824.902	1268.6	2.896
308.15 K, x1 = 0.253	828.737	1268.3	2.807
308.15 K, x1 = 0.2999	832.499	1268.2	2.736
308.15 K, x1 = 0.4044	840.855	1268.1	2.597
308.15 K, x1 = 0.5039	848.772	1268.2	2.499
308.15 K, x1 = 0.5932	855.859	1268.6	2.43
308.15 K, x1 = 0.7003	864.345	1269.2	2.367
308.15 K, x1 = 0.8019	872.393	1270.1	2.311
308.15 K, x1 = 0.8545	876.541	1270.6	2.284
308.15 K, x1 = 0.8987	880.024	1271.1	2.275
308.15 K, x1 = 0.9522	884.199	1271.8	2.242
313.15 K, x1 = 0.0535	809.018	1253	–
313.15 K, x1 = 0.1046	813.092	1252.7	–
313.15 K, x1 = 0.1546	817.077	1252.4	–
313.15 K, x1 = 0.2054	821.127	1252.2	–
313.15 K, x1 = 0.253	824.921	1252	–
313.15 K, x1 = 0.2999	828.653	1251.9	–
313.15 K, x1 = 0.4044	836.942	1251.8	–
313.15 K, x1 = 0.5039	844.805	1251.9	–
313.15 K, x1 = 0.5932	851.852	1252.2	–
313.15 K, x1 = 0.7003	860.279	1252.7	–
313.15 K, x1 = 0.8019	868.245	1253.4	–
313.15 K, x1 = 0.8545	872.354	1253.9	–
313.15 K, x1 = 0.8987	875.803	1254.3	–
313.15 K, x1 = 0.9522	879.956	1254.9	–

From the NIST ThermoML archive (doi:10.1016/j.jct.2013.04.021)
